Experiments:
[1] = tested on: primary human total T-cells; experiment: Primary human total T-cell activation: CD25 surface staining, Biological Example 13; type: cell-based; conditions: 48 hours, fold change over baseline; for fold induction at 1 µM: inhibitor 1 μM
[2] = tested on: primary human total T-cells; experiment: Primary human total T-cell activation: IL-2 secretion, Biological Example 2; type: cell-based; conditions: 48 hours, fold change over baseline; for fold induction at 1 µM: inhibitor 1 μM

For C[C@@H]1CN(Cc2cc3c(c(C(F)(F)F)c2)CN(c2cccc(C4(Cc5nncn5C)COC4)c2)C3=O)CCC1(F)F [Compound 8, (R)-6-((4,4-difluoro-3-methylpiperidin-1-yl)methyl)-2-(3-(3-((4-methyl-4H-1,2,4-triazol-3-yl)methyl)oxetan-3-yl)phenyl)-4-(trifluoromethyl)isoindolin-1-one], the fold induction at 0.3 µM ([1]; anti-CD3/anti-CD28 co-stimulation, inhibitor 0.3 μM, Table 13-1) was > 1.39, the fold induction at 1 µM ([1]; anti-CD3/anti-CD28 co-stimulation, Table 13-1, read-out: CD25 staining CD3/CD28 1 μM) was > 1.39 and the fold induction at 1 µM ([1]; anti-CD3 alone, Table 13-1, read-out: CD25 staining CD3 1 μM) was > 1.14. The fold induction at 3 µM ([1]; anti-CD3 alone, inhibitor 3 μM, Table 13-1) was > 1.14, the fold induction at 0.3 µM ([2]; anti-CD3/anti-CD28 co-stimulation, inhibitor 0.3 μM) was > 15 and the fold induction at 1 µM ([2]; anti-CD3/anti-CD28 co-stimulation, read-out: IL-2 secretion CD3/CD28 1 μM) was > 15. For the same molecule, the fold induction at 1 µM ([2]; anti-CD3 alone, read-out: IL-2 secretion CD3 1 μM) was 0.34 to 0.66 and the fold induction at 3 µM ([2]; anti-CD3 alone, inhibitor 3 μM) was 0.34 to 0.66.

From US11464802B2, “3-substituted piperidine compounds for Cbl-b inhibition, and use thereof” (Nurix Therapeutics, Inc., priority 2019, dated 2022)
